The subject of assay [1] is cell-mediated oxidation of LDL. Briefly: Time course of cell-mediated LDL oxidation. It is filed as cell-based. As to conditions: 30 µM, after 10 hours incubation; Figure 7. The method, then:
The antioxidant capacity of lercanidipine and its enantiomers was investigated also on cell-mediated oxidation. This was evaluated by incubating ethylenediaminetetraacetic acid free LDL under sterile conditions With 5 µM Cu^++ (100 µg Apo B/ml) in the presence of J774 cells or alternatively with EAhy-926 cells. Oxidation was blocked after 22 hours incubation by adding butylated hydroxytoluene to the medium (final concentration 40 µM) dissolved in ethanol. The extent of lipid peroxidation was measured by determining the percentage inhibition of aldehydic breakdown products using the thiobarbituric acid assay [A.N. Hanna et al., Biochem. Pharmacol. 45, 753 (1993)]. Briefly, to 0.250 ml of the incubated samples, 0.750 ml of trichloroacetic acid ([…]) was added followed by 0.750 ml of thiobarbituric acid (0.67% w/v). The samples were heated at 100°C for 20 min, followed by cooling and centrifugation. Malondialdehyde equivalents were calculated using 1,1,3,3-tetramethoxy-propane as standard.
In the above experiments of cell-mediated oxidation the effects of lercanidipine were investigated after 22 hours incubation. […]

Another assay has as its system LDL. The assay can be described thus: Cu++-mediated LDL oxidation, conjugated diene formation at 234 nm. The format is physicochemical, human. As to conditions: for Lag time: 20 µM CuSO4, 25°C. Also noted: Lag time: unit: min. The method, then:
Lercanidipine antioxidant capacity was evaluated by incubating LDL With 20 µM Cu^++ in the presence or absence of different concentrations of the tested compound (0.01 µM - 50 µM). LDL oxidation Was followed by monitoring conjugated diene formation at 234 nm. The experimental conditions were as follows. LDL (d = 1.019-1.063) were isolated from human pooled plasma by sequential ultracentrifugation at 4°C and 40,000 rpm in a 50Ti rotor, using a L5-50 ultracentrifuge (Beckman, Palo Alto, CA). LDL were then dialyzed against 0.15 M NaCl containing 0.01% ethylenediaminetetraacetic acid pH 7.4, sterilized by filtration through a […] millipore filter and kept at 4°C under nitrogen in the dark until use (up to 3 weeks). Before use LDL were dialysed against ethylenediaminetetraacetic acid free phosphate buffered saline pH 7.4 on Sephadex G-25 columns (PD-10, Pharmacia Fine Chemicals, Uppsala, Sweden) and then LDL were filtered through a sterile 0.22 µM filter. LDL in phosphate buffered saline (50 µg lipoprotein protein/ml) were oxidized by incubation at 25°C with 20 µM CuSO4 for 3 hours. The lercanidipine solution was prepared as a 10^-2 M stock solution in methanol and added as ethanol solution (maximum 1% v/v) prior to addition of copper. The effect of lercanidipine on the oxidation of LDL was determined by continuous monitoring the conjugated diene formation by recording the increase in the absorbance at 234 nm at 5 min intervals during a three hours period, against a phosphate buffered saline blank, using a UV spectrophotometer (Beckman DU 640) with continuous reading with a automatic 6-cell changer. The lag time of the onset of oxidation was calculated as the intercept between the line of the maximum slope of the propagation phase and the baseline where absorbance was that at time 0.

Assay [2] has as its system Human vascular myocytes (A 617 from human femoral artery). The assay can be described thus: Myocytes growth inhibition measured by cell count (human). It is filed as cell-based. The following applies: cell count after 72 hours with 10% fetal calf serum, read-out: IC50 (concentration required to inhibit cell growth by 50%). The method, then:
Migration of myocytes was investigated for the present invention using rat aortic smooth muscle cells in the presence of fibrinogen as chemotactic factor, whereas for studies on their proliferation rat and human cells were used. Cell count and [^3H]-thymidine incorporation were used to evaluate myocytes growth. The methodology was as follows:
Myocytes were cultured from the intima-medial layer of the aortas of male Sprague-Dawley rats (200-250 g). Cells were grown in monolayers at 37°C in a humidified atmosphere of 5% CO2 in Eagle's minimum essential medium supplemented with 10% (v/v) fetal calf serum, 100 U/ml penicillin, 0.1 mg/ml streptomycin, 20 mM tricine buffer and 1% (v/v) non-essential amino acid solution. The medium was changed every third day. Cells were used between the 4th and 10th passage. Cell viability was timely assessed by tripan blue exclusion. Myocytes were identified for growth behaviour, morphology and using monoclonal antibody specific for a-actin, the actin isoform typical of myocytes. Human vascular myocytes (A 617 from human femoral artery) were grown in the same culture conditions. […] Cell proliferation was evaluated by cell count after trypsinization of the monolayers using a Coulter Counter model ZM. Cell viability was assessed by tripan blue exclusion, and found to be higher than 95% at the drug concentrations used.

For the next assay, the system named is renal hypertensive dogs. The assay can be described thus: Blood pressure in renal hypertensive dogs, oral administration. It is filed as in vivo, beagle dogs. The following applies: for ED25 (dose inducing 25% decrease in DBP at peak effect), 95% C.L.: renal hypertensive dogs, linear regression analysis. The method, then:
The antihypertensive effects of oral assumption of lercanidipine and its enantiomers were tested in renal hypertensive dogs.
Male beagle dogs weighing 12-13 kg, aged 1-3 years (Nossan Allevamenti, Italy) were used. Chronic sustained hypertension was induced by bilateral renal artery constriction, according to the Goldblatt method "two-kidney, two clip hypertension". Under barbiturate anaesthesia (35 mg/kg iv.) during two different surgical interventions one month apart from each other, both renal arteries were clipped with original renal silver clips and narrowed by about 60-70 %. After two months from the last intervention, an experimental renal hypertension was produced and the animals were suitable for the implantation of a catheter. Under sodium pentobarbital anaesthesia (35 mg/kg iv.), in sterile conditions, the dogs were catheterized by inserting an indwelling cannula (PE 200 Clay Adams) into the ascending aorta through the right common carotid artery. The catheter was subcutaneously exteriorized at the back of the neck, filled with heparinized saline solution and daily flushed to prevent clotting. After a week to recover from surgery, the animals were connected to a HP 1290A pressure transducer connected to an HP 8805B carrier amplifier of a Hewlett Packard HP 7700 multichannel polygraph, in order to monitor the arterial blood pressure. Heart rate was manually computed from the pressure trace.
All animals were alternatively treated with placebo, lercanidipine and its (R)- and (S)-enantiomers. The drugs were administered by the oral route with a straight round aseptic tip catheter (Pores Serlat - France). The drugs were suspended in aqueous 0.5% Methocel A4C plus Antifoam M10 (10%). The administered volume was 1 ml/kg. The suspending medicine was used as placebo. During experimental performance, the arterial blood pressure was continuously recorded 30 minutes before (Basal Values) and up to 8 hours after drug administration.
The ED25 values (dose inducing 25% decrease in DBP at peak effect) were evaluated by linear regression analysis and are summarized in Table 4.

Assay [3] deals with macrophages loaded with cholesterol ester. The assay can be described thus: Cholesterol esterification in macrophages loaded with cholesterol ester. The following applies: Figure 4; for relative potency on cholesterol esterification: cholesterol ester loaded macrophages. It is filed as cell-based, mouse. On the procedure: Cholesterol esterification induced by AcLDL in mouse peritoneal macrophages was investigated as follows. Mouse peritoneal macrophages were obtained by peritoneal lavage from mice (Balb/c Charles River, Calco, Italy) three days after intraperitoneal injection of thioglycolate. Cells (2-3x10^6) were plated in 35 mm wells with Dulbecco's minimum essential medium containing 10% fetal bovine serum. After 3 hours, the dishes were washed to eliminate unattached cells and maintained in Dulbecco's minimum essential medium plus 10% fetal bovine serum for 24 hours before use. After cell plating, experiments were performed at 37°C in serum free Dulbecco's minimum essential medium containing 0.2% essentially fatty acid-free bovine serum albumin plus the indicated additions. Human LDL (d=1.019-1.063 g/ml) were isolated from plasma of healthy volunteers by sequential ultracentrifugation (Beckman L5-50, Palo Alto, CA). For acetylation, LDL were dialysed against 0.15 M NaCl, pH 7.4, diluted with an equal volume of saturated sodium acetate and treated with acetic anhydride. For [^125I]AcLDL, lipoproteins were labelled with sodium [^125I]iodide desalted by gel filtration on Sephadex G-25 eluted with phosphate buffered saline. Specific activity was 100-200 cpm/ng protein. Trichloroacetic acid non precipitable radioactivity was below 2% of total. All lipoproteins were sterile filtered. Cells were incubated for 24 hours with the tested compounds. After substitution of the medium with an identical one, incubation was continued for additional 24 hours. During this second incubation [^125I]AcLDL were added (50 µg/ml). Cholesterol esterification was measured after addition of [1-^14C] oleic acid ([…] sample) complexed with bovine serum albumin during the last 1 or 2 hours of incubation and subsequent determination of radioactivity associated with cellular cholesteryl esters. Where indicated cells were enriched with cholesterol by 24 hours incubation with 50 µg/ml of AcLDL before drug addition and experimental determinations.
Another set of experiments was performed to evaluate the effect of lercanidipine on cholesterol esterification in macrophages loaded with cholesterol ester before the addition of the compound, this condition being the same as in foam cells. Cells are loaded with cholesteryl esters by exposure for 24 hours to a medium containing 50 µg acetyl LDL.

For assay [4], the system named is rat aortic smooth muscle cells (myocytes). Briefly: Myocytes growth inhibition measured by cell count (rat). It is filed as cell-based. As to conditions: 72 h, cell count after 72 hours with 10% fetal calf serum, read-out: IC50 (concentration required to inhibit cell growth by 50%).
For assay [5], the system named is mouse peritoneal macrophages. The assay can be described thus: Cholesterol esterification induced by AcLDL in macrophages. As to conditions: comparison of lercanidipine and enantiomers; Figure 3. The format is cell-based. The method, then:
Cholesterol esterification induced by AcLDL in mouse peritoneal macrophages was investigated as follows. Mouse peritoneal macrophages were obtained by peritoneal lavage from mice (Balb/c Charles River, Calco, Italy) three days after intraperitoneal injection of thioglycolate. Cells (2-3x10^6) were plated in 35 mm wells with Dulbecco's minimum essential medium containing 10% fetal bovine serum. After 3 hours, the dishes were washed to eliminate unattached cells and maintained in Dulbecco's minimum essential medium plus 10% fetal bovine serum for 24 hours before use. After cell plating, experiments were performed at 37°C in serum free Dulbecco's minimum essential medium containing 0.2% essentially fatty acid-free bovine serum albumin plus the indicated additions. Human LDL (d=1.019-1.063 g/ml) were isolated from plasma of healthy volunteers by sequential ultracentrifugation (Beckman L5-50, Palo Alto, CA). […] Trichloroacetic acid non precipitable radioactivity was below 2% of total. […] Cholesterol esterification was measured after addition of [1-^14C] oleic acid ([…] sample) complexed with bovine serum albumin during the last 1 or 2 hours of incubation and subsequent determination of radioactivity associated with cellular cholesteryl esters. […]

Read-outs that look alike come from different tables or passages of the source.

Regarding `COC(=O)C1=C(C)NC(C)=C(C(=O)OC(C)(C)CN(C)CCC(c2ccccc2)c2ccccc2)C1c1cccc([N+](=O)[O-])c1` (racemic) [Lercanidipine, methyl 1,1,N-trimethyl-N-(3,3-diphenylpropyl)-2-aminoethyl 1,4-dihydro-2,6-dimethyl--4-(3-nitrophenyl)-pyridine-3,5-dicarboxylate], the “inhibition of lipid oxidation” value in assay [1] was “very high inhibition of lipid oxidation”. Moreover, the “effect on the lag-phase of LDL oxidation” value in the assay with LDL (10 µM) is recorded as “doubled the lag-phase of LDL oxidation”. In the assay on LDL ("in these assays" (LDL oxidation)), the “potency on LDL oxidation compared with lacidipine” value is listed as “one order of magnitude higher than that of lacidipine”. Moreover, the Lag time in the assay on LDL (Lercanidipine 0.5 µM) amounted to 45.1 ± 3.7; in the assay on LDL (Lercanidipine 1.0 µM), 49.8 ± 4.7; in the assay with LDL (Lercanidipine 2.5 µM, P < 0.05), 53.6 ± 3.3; with LDL (Lercanidipine 5.0 µM, P < 0.01), 73.2 ± 4.8; in the assay with LDL (Lercanidipine 10.0 µM, P < 0.01), 112.7 ± 5.2. The IC50 in assay [2] is 25.3 µM; in assay [3] (Mus musculus, Macrophage, cells loaded 24 hours with 50 µg acetyl LDL) it was about 7 µM; in assay [4] (Myocytes from SD Rat), 31.2 µM; in assay [4] (Myocytes from SHR Rat), 14.1 µM; in assay [4] (Myocytes from WK Rat) it was 16.4 µM. Besides, the “effect on arterial blood pressure” value in the assay with renal hypertensive dogs is “dose-related decrease in arterial blood pressure”. Further, the “inhibition of cholesterol esterification” value in assay [3] (maximum, cells loaded 24 hours with 50 µg acetyl LDL) is “up to 70%”.

In the case of `COC(=O)C1=C(C)NC(C)=C(C(=O)OC(C)(C)CN(C)CCC(c2ccccc2)c2ccccc2)[C@@H]1c1cccc([N+](=O)[O-])c1` [(R)-Lercanidipine, (R)-(-)-methyl 1,1-N-triethyl-N-(3,3-diphenylpropyl)-2-aminoethyl 1,4-dihydro--2,6-dimethyl-4-(3-nitrophenyl)-pyridine-3,5-dicarboxylate], in the assay on renal hypertensive dogs, the “ED25 (dose inducing 25% decrease in DBP at peak effect), 95% C.L.” value is reported as > > 30 mg/kg. Moreover, the “relative activity on cholesterol esterification induced by AcLDL” value in assay [5] is “most active compound”. In addition, in assay [3], the “relative potency on cholesterol esterification” value was “slightly more potent than the racemate”.

For `COC(=O)C1=C(C)NC(C)=C(C(=O)OC(C)(C)CN(C)CCC(c2ccccc2)c2ccccc2)[C@H]1c1cccc([N+](=O)[O-])c1` [(S)-Lercanidipine, (S)-(+)-methyl 1,1-N-trimethyl-N-(3,3-diphenylpropyl)-2-aminoethyl 1,4-dihydro--2,6-dimethyl-4-(3-nitrophenyl)-pyridine-3,5-dicarboxylate], in the assay with renal hypertensive dogs, the “antihypertensive efficacy compared with the racemate” value was “two fold more efficacious than the racemate”; the “effect on arterial blood pressure” value is on record as “dose-related decrease in arterial blood pressure”; the “ED25 (dose inducing 25% decrease in DBP at peak effect), 95% C.L.” value is given as 0.4 (0.3 ö 0.7) mg/kg. For the same molecule, in assay [3], the “relative potency on cholesterol esterification” value is “least potent among the compounds tested”.

Take `CCOC(=O)C1=C(C)NC(C)=C(C(=O)OCC)C1c1ccccc1/C=C/C(=O)OC(C)(C)C` [LA, Lacidipine, reference compound]: the IC50 in assay [4] (Myocytes from SD Rat) was 23.6 µM.

On to `COC(=O)C1=C(C)NC(C)=C(C(=O)OCCN(C)Cc2ccccc2)C1c1cccc([N+](=O)[O-])c1` (stereo not drawn) [NI, Nicardipine, reference compound], for which, in assay [4] (Myocytes from SD Rat), the IC50 came out at 38.8 µM.
